“Also recorded” adds a separate entry of the source.
How the values were obtained:
Type in all cases: in vivo, rice
unmutated line R0146 = assay: Mesotrione tolerance trials / herbicide bioassay
Excerpt: (§1) Selection of material inheriting mesotrione tolerance is accomplished by a simple herbicide bioassay. A high rate of mesotrione (at least 420 gm ai/ha) is applied allowing differentiation of heterozygous individuals from homozygous individuals and the tolerance level of the […] line from the inherent tolerance level in the background of some types of rice. In one example a rate of 105 gm ai/ha is applied followed three weeks later by a second application of 630 gm ai/ha. In another example a rate of 420 gm ai/ha is applied in a single application. Yet another example entails applying the herbicide at a rate of 630 gm ai/ha. Herbicide applications are done at the three to four leaf stage of seedling growth. The ideal situation is to have also planted near or within the plants to be selected a set of plants from the original mutant mesotrione tolerant donor line ML0831266-03093, (FIG. 18A) a row of plants of the wild-type of the […] line, P1003 (FIG. 18B), and a row of the line involved as the other parent in the cross (FIG. 18C). These control lines allow easy differentiation for inheritance of the tolerance provided by the ML0831266-03093 mutant line through comparison of the response in the plants to be selected with the control lines. Only plants that live and are relatively healthy will have inherited and be homozygous for the tolerance level provided by the ML0831266-03093 mutant line (FIG. 18A).
(§2) The mutant line is planted in rows or alternatively whole plots are planted and rows of the unmutated line (P1003) and other types of rice or whole plots are planted. Mesotrione is applied pre-emergence or alternatively it is applied post-emergence at the three to four leaf stage of the rice plants. Various rates of mesotrione are applied pre-emergence, pre-emergence followed by post-emergent, or post-emergent with a single or sequential application. Post-emergent applications are applied at the 3-4 leaf stage of the rice.
(§3) Seedlings of size 3 to 4 leaves are sprayed with mesotrione herbicide. In one set of 89 plants mesotrione is first applied at 105 gm ai/ha killing 23 plants. Both the mutant line control ML0831266-03093 and the unmutated line P1003 survived the herbicide application while the unmutated line R0146 was killed. The surviving plants including some additional plants making a total of 95 are then sprayed with another treatment of mesotrione at a rate of 630 gm ai/ha killing or injuring 67 while 28 survived. (FIG. 23) The surviving ratio of plants to those killed or injured fits a one quarter ratio with a chi squared value of 1.03, well within the expected for a single recessive gene. Another set of F2 individuals of size 78 individuals are sprayed with a single application of mesotrione herbicide at a rate of 420 gm ai/ha resulting in 26 plants surviving also fitting in the expected one quarter ratio for a single recessive gene with a chi square value of 2.88 (Table 2).

unmutated line P1003 = assay: Mesotrione tolerance trials / herbicide bioassay
Excerpt: as §1, §2, §3

[1] = test system: permanent mutant population (lines derived from P1003, R0146, P1062); assay: Mesotrione screening of the permanent mutant population; settings: 255.1 gm ai per acre, within twelve hours after planting
Excerpt: A mutation breeding program was initiated to develop proprietary herbicide resistant/tolerant lines. A permanent mutant population was created by exposing approximately 10,000 seeds (estimated by the average weight of a kernel) of three rice lines including P1003, R0146, and P1062 to both mutagens sodium azide (AZ) and methyl-nitrosourea (MNU). The treated seeds were planted. Individual plants were harvested creating 8,281 potentially […] lines. The lines have been maintained as a permanent mutant population for trait screening.
Resistance to mesotrione herbicide was found by screening the permanent mutant population. All lines in the permanent mutant population were planted into a dry seed bed. Within twelve hours after planting mesotrione (Callisto®) was applied at a rate of 255.1 gm ai per acre. The field was immediately flushed with water and kept moist through periodic flushing. The seedlings grew, many were bleached white and all lines derived from R0146 died whereas plants lived from 21 lines derived from the P1003 and 2 derived from P1062 mutation populations. The HPPD gene was sequenced, and no genetic mutation was identified causing any amino acid substitutions (SEQ ID NOs: 1, 2, 3).

line ML0831265-01493 = assay: Mesotrione tolerance trials / herbicide bioassay
Excerpt: as §2
With low rates (105 gm ai/ha) of mesotrione applied both the mutant line as well as the original unmutated line survive. However, other types of rice, such as the mutant line with ACCase tolerance ML0831265-01493 and the associated unmutated line R0146 are killed at these rates of mesotrione. […] The higher tolerance to mesotrione makes the line ML0831266-03093 of commercial value as both the tolerance can be controlled or bred into new varieties and it is of a high enough level to allow commercial weed control in rice with the application of mesotrione herbicide and possibly other HPPD inhibiting herbicides (FIG. 19A initial results, FIG. 19B new results after 1 year, and FIG. 22—trial results on various rice lines).

[2] = test system: mutant line ML0831266-03093; assay: Mesotrione tolerance trials / herbicide bioassay
Method: After the initial screening of the “mutation population,” the lines with no damage were selected and tested in additional experiments using different rates of the herbicide. In particular, a rate response experiment was conducted in which two different rates of mesotrione were applied pre-emergence, plus an additional foliar application was also applied. […] Progeny of this designated ML0831266-03093 are maintained as a new line carrying resistance to mesotrione herbicide. Seeds are deposited under ATCC PTA-13620. The line (ML0831266-03093) is a source of resistance that is backcrossed into proprietary rice lines or used directly in breeding to develop new proprietary rice lines. The developed lines are a source of herbicide resistance for use in development of new hybrids that offer an alternative mode of action to control weeds in rice. Affording this opportunity to growers is of great value both in providing high yields and in extending the useful life of available weed control technologies. These herbicide resistant traits can be tracked through the simple application of herbicides to growing plants.
as §1, §2
Seedlings of size 3 to 4 leaves are sprayed with mesotrione herbicide. In one set of 89 plants mesotrione is first applied at 105 gm ai/ha killing 23 plants. Both the mutant line control ML0831266-03093 and the unmutated line P1003 survived the herbicide application while the unmutated line R0146 was killed. […]

[3] = one application at 105 gai/ha followed by a second application of 630 gai/ha

## CS(=O)(=O)c1ccc(C(=O)C2C(=O)CCCC2=O)c([N+](=O)[O-])c1 [mesotrione]
Unmutated line R0146; low rate 105 gm ai/ha
  survival after mesotrione: killed
Unmutated line R0146; [3]
  response of the rice to mesotrione: completely killed
Unmutated line P1003; higher rates
  survival after mesotrione: killed or severally injured
Unmutated line P1003; low rate 105 gm ai/ha
  survival after mesotrione: survived
Unmutated line P1003; [3]
  response of the rice to mesotrione: severely injured
[1]
  number of lines derived from P1003 with plants that lived: 21 lines
  number of lines derived from P1062 with plants that lived: 2 lines
  response of lines derived from R0146: died
Line ML0831265-01493; in vivo
  sensitivity to mesotrione: highly susceptible; also recorded: highly sensitive
Line ML0831265-01493; low rate 105 gm ai/ha
  survival after mesotrione: killed
[2]; 420 gm ai/ha
  tolerance to mesotrione: tolerant
[2]; applied rates of mesotrione, FIG. 6
  tolerance to mesotrione in the presence of common rice weeds: completely tolerant
[2]; higher rates
  survival after mesotrione: survives
[2]; low rate 105 gm ai/ha
  survival after mesotrione: survived
[2]; [3]
  response of the rice to mesotrione: tolerant; also recorded: little damage

— US9994862B2, “Rice resistant to HPPD and ACCase inhibiting herbicides” (priority 2011, dated 2018)
